Experimental data as given in patent US8372869B2, “Process for the treatment of bacterial infections using 2-phenyl-1,2-benzisoselenazol-3(2H)-one 1-oxide” (priority 2008, dated 2013).
“Also recorded” adds a separate entry of the source.

Assays:
[1] = system: Escherichia coli strain DH5(alpha) (Gram-negative); test: Bacterial growth inhibition by light-scattering at 550 nm, Escherichia coli; type: cell-based; details: read-out: IC50 towards Escherichia coli cells (growth inhibition)
Text: (§1) A Gram-negative Escherichia coli strain, DH5(alpha), was purchased from Invitrogen (Cat #18265-017; Carlsbad, Calif.) and a Gram-positive Staphylococcus aureus strain, positive for catalase and coagulase, was purchased from Ward's Natural Science (Cat #85V1178; Rochester, N.Y.). S. aureus strain ATCC 33592 is a clinical isolate which is resistant to methicillin and which was obtained from the American Type Culture Collection (Manassas, Va.). S. aureus strain NARSA VRS 1 is a clinical isolate which is resistant to both methicillin and vancomycin and which was obtained from Focus Technologies, Inc. (Herndon, Va.). These bacterial strains were used to test the antibacterial activity of ebselen se-oxide. To prepare ebselen se-oxide, an adequate amount of said compound was dissolved in 0.5 mL of dimethylsulfoxide (DMSO) to give a 30.0 mM stock solution.
(§2) Luria Broth (LB) was used to for the culturing of both bacterial strains. […]
(§3) Bacterial growth, in the absence or presence of ebselen se-oxide, was assessed by light-scattering at 550 nm. In separate experiments, bacterial cells of either the Staphylococcus aureus or the Escherichia coli strain were inoculated into polypropylene tubes containing 5 mL of LB medium to obtain an initial optical density at 550 nm (OD550) of ˜0.005, as determined using a spectrophotometer (UV 160U, Shimadzu Corp., Kyoto, Japan). […]

[2] = system: Staphylococcus aureus strain, positive for catalase and coagulase (Gram-positive); test: Bacterial growth inhibition by light-scattering at 550 nm, Staphylococcus aureus; type: cell-based; details: read-out: IC50, concentration required to inhibit the growth of Staphylococcus aureus to 50% of the untreated control
Text: as §1, §2, §3

[3] = system: S. aureus strain NARSA VRS1 (resistant to both methicillin and vancomycin); test: Broth microdilution susceptibility testing, methicillin- and vancomycin-resistant S. aureus; type: cell-based, Staphylococcus aureus; details: strain NARSA VRS1, Mueller Hinton Broth, 24 (±4) hr, 35-37° C., 3.125-25 μM tested
Text: as §1
(§4) Note that all susceptibility assays were performed in triplicate wells using sterile flat-bottom 96-well microtiter plates. […] After 24 (±4) hr of incubation at 35-37° C., the MIC (minimum inhibitory concentration) for ebselen se-oxide was determined for each strain visually by comparing the turbidity of the triplicate treatments to that observed for drug-free growth control wells. […]

[4] = system: A-431 human skin cells; test: MTT viability assay in human skin cells; type: cell-based; details: 12.5, 25 or 50 μM, 24 hr, 37° C., serum-free DMEM
Protocol: Cells were then incubated for 24 hr at 37° C. After incubation, the MTT viability assay was performed. This assay measures the conversion of 3-[4,5-dimethylthiazol-2-yl]-2,5-diphenyl tetrazolium bromide (MTT) into a colored product in living cells. The optical density of this purple formazan product in the cell culture medium was then measured spectrophotometrically at 570 nm and cell viability was determined as described by Mosmann (15).
The MTT assay was used to determine cell viability and the LC50 value for ebselen se-oxide in these cells was evaluated.

[5] = system: S. aureus strain ATCC 33592 (resistant to methicillin); test: Broth microdilution susceptibility testing, methicillin-resistant S. aureus; type: cell-based, Staphylococcus aureus; details: strain ATCC 33592, Mueller Hinton Broth, 24 (±4) hr, 35-37° C., 3.125-25 μM tested
Text: as §1, §4

| Structure (SMILES) | IC50 [1] [µM] | IC50 [2] [µM] | MIC (lowest concentration showing 100% growth inhibition in all three wells) [3] | Cytotoxic effect on viability of A-431 human skin cells (MTT) [4] | MIC (lowest concentration showing 100% growth inhibition in all three wells) [5] |
| --- | --- | --- | --- | --- | --- |
| O=C1c2ccccc2[Se](=O)N1c1ccccc1 (stereo not drawn) [ebselen se-oxide, 2-phenyl-1,2-benzisoselenazol-3(2H)-one 1-oxide] | ~17 | ~0.6 | low micromolar range | neither compound was toxic; also recorded: no toxicity | low micromolar range |
| O=c1c2ccccc2[se]n1-c1ccccc1 [ebselen, 2-phenyl-1,2-benzoisoselenazol-3(2H)-one, reference compound] |  |  |  | neither compound was toxic |  |
